One assay concerns the target T1, human arginase I (ARG I) (Homo sapiens, UniProt P05089).
T1 sequence (P05089 1-322): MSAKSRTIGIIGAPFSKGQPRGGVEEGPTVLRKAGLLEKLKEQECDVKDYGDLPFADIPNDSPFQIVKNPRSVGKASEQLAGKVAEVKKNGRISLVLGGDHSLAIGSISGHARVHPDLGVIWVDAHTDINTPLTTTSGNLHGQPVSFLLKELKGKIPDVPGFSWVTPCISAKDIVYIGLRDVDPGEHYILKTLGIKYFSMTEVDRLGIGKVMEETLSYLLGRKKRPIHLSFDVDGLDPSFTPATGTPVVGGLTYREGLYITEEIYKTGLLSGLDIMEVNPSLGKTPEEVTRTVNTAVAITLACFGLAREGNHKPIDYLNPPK
In words: Inhibition of arginase I, spectrophotometric urea assay at 530 nm. In kind it is biochemical. The conditions noted are these: Formula I compounds, Table 2; read-out: Potency (ARG I). The essentials: (§1)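 IC50 was derived by regression of OD530 normalized to uninhibited-enzyme controls against log concentration. Urea from 60-min, 37 °C turnover of L-arginine with manganese sulfate was detected after acid o-phthaldialdehyde/primaquine quench and 10 min colour development. Arginase I and II came from 100 ng/ml stocks in pH 7.4 phosphate with ovalbumin.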

Another assay deals with T2, arginase II (ARG II) (Homo sapiens, UniProt P78540).
T2 sequence (P78540 23-354): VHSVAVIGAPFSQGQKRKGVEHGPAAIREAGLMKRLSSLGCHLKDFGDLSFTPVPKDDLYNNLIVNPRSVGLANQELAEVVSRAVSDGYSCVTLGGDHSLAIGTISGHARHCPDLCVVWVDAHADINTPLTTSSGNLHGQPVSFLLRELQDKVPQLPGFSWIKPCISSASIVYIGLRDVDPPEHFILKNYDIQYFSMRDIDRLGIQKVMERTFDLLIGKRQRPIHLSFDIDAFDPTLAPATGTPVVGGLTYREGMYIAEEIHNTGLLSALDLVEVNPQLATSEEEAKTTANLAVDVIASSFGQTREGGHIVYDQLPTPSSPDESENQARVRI
In words: Inhibition of arginase II, spectrophotometric urea assay at 530 nm. The format is biochemical. The note with it: Formula I compounds, Table 2; read-out: Potency (ARG II). The essentials:
as §1

Counter-ions that a name gives are not always drawn.

As for `NC(CCCCB(O)O)(CCN1CCC(F)CC1)C(=O)O` (stereo not shown) [compound 47, 2-amino-6-borono-2-(2-(4-fluoropiperidin-1-yl)ethyl)hexanoic acid dihydrochloride], the IC50 at human arginase I (ARG I) fell in the range of 1000 to 2000 nM; at arginase II (ARG II), 2000 to 5000 nM.
On to `CN(CCC(N)(CCCCB(O)O)C(=O)O)Cc1ccc(F)c(C(F)(F)F)c1` (stereo not shown) [compound 48, 2-amino-6-borono-2-(2-((4-fluoro-3-(trifluoromethyl)benzyl)(methyl)amino)ethyl)hexanoic acid dihydrochloride], for which the IC50 on human arginase I (ARG I) was 2000 to 5000 nM; at arginase II (ARG II), above 5000 nM.
For `CN1CCCN(CCC(N)(CCCCB(O)O)C(=O)O)CC1` (stereo not shown) [compound 49, 2-amino-6-borono-2-(2-(4-methyl-1,4-diazepan-1-yl)ethyl)hexanoic acid dihydrochloride] the same measures were 2000 to 5000 nM and 2000 to 5000 nM.
Take `COc1ccccc1N1CCN(CCC(N)(CCCCB(O)O)C(=O)O)CC1` (stereo not shown) [compound 50, 2-amino-6-borono-2-(2-(4-(2-methoxyphenyl)piperazin-1-yl)ethyl)hexanoic acid dihydrochloride]: the IC50 on human arginase I (ARG I) and at arginase II (ARG II) was above 5000 nM throughout.
`NCCN(CCN)CCC(N)(CCCCB(O)O)C(=O)O` (stereo not shown) [compound 51, 2-amino-2-(2-(bis(2-aminoethyl)amino)ethyl)-6-boronohexanoic acid tetrahydrochloride]: the IC50 lay in the range of 1000 to 2000 nM on human arginase I (ARG I) and 2000 to 5000 nM on arginase II (ARG II).
Take `NC(CCCCB(O)O)(CCN1CCCCC1C(=O)O)C(=O)O` (stereo not shown) [compound 52, 1-(3-amino-7-borono-3-carboxyheptyl)piperidine-2-carboxylic acid dihydrochloride]: the IC50 at human arginase I (ARG I) and on arginase II (ARG II) was 2000 to 5000 nM throughout.
Consider `NC(CCCCB(O)O)(CCN1CCC[C@@H](C(=O)O)C1)C(=O)O` (stereo partly drawn) [compound 53, (3R)-1-(3-amino-7-borono-3-carboxyheptyl)piperidine-3-carboxylic acid], for which the IC50 on human arginase I (ARG I) and at arginase II (ARG II) was 2000 to 5000 nM in each case.
Regarding `CN(C)C(=O)[C@@H]1CCCN1CCC(N)(CCCCB(O)O)C(=O)O` (stereo partly drawn) [compound 54, 2-amino-6-borono-2-(2-((S)-2-(dimethylcarbamoyl)pyrrolidin-1-yl)ethyl)hexanoic acid dihydrochloride], the IC50 at human arginase I (ARG I) and on arginase II (ARG II) was above 5000 nM in each case.
Take `CC(C)NCCC(N)(CCCCB(O)O)C(=O)O` (stereo not shown) [compound 55, 2-amino-6-borono-2-(2-(isopropylamino)ethyl)hexanoic acid dihydrochloride]: the IC50 at human arginase I (ARG I) lay in the range of 0.1 to 250 nM; at arginase II (ARG II), 251 to 1000 nM.
`NC(CCCCB(O)O)(CCN1CCC[C@H](C(=O)O)C1)C(=O)O` (stereo partly drawn) [compound 56, (3S)-1-(3-amino-7-borono-3-carboxyheptyl)piperidine-3-carboxylic acid dihydrochloride]: the IC50 at human arginase I (ARG I) lay within 1000 to 2000 nM; at arginase II (ARG II), 2000 to 5000 nM.
In the case of `CC1(C(=O)O)CCN(CCC(N)(CCCCB(O)O)C(=O)O)CC1` (stereo not shown) [compound 57, 1-(3-amino-7-borono-3-carboxyheptyl)-4-methylpiperidine-4-carboxylic acid], the IC50 at human arginase I (ARG I) and on arginase II (ARG II) was 1000 to 2000 nM throughout.
For `NC(CCCCB(O)O)(CCNC1Cc2ccccc2C1)C(=O)O` (stereo not shown) [compound 58, 2-amino-6-borono-2-(2-(2,3-dihydro-1H-inden-2-ylamino)ethyl)hexanoic acid dihydrochloride], the IC50 on human arginase I (ARG I) and on arginase II (ARG II) was 0.1 to 250 nM each time.
Regarding `NC(CCCCB(O)O)(CCN1CC(O)C1)C(=O)O` (stereo not shown) [compound 59, 2-amino-6-borono-2-(2-(3-hydroxyazetidin-1-yl)ethyl)hexanoic acid dihydrochloride], the IC50 is 1000 to 2000 nM on human arginase I (ARG I) and 2000 to 5000 nM on arginase II (ARG II).
As for `CCCCC1(NCCC(N)(CCCCB(O)O)C(=O)O)CC1` (stereo not shown) [compound 60, 2-amino-6-borono-2-(2-(1-butylcyclopropylamino)ethyl)hexanoic acid dihydrochloride], the IC50 on human arginase I (ARG I) is 0.1 to 250 nM; on arginase II (ARG II), 251 to 1000 nM.

The record behind these values is US9994594B2, “Inhibitors of arginase and their therapeutic applications” (MARS, INCORPORATED, priority 2010, dated 2018).
